Common to all, as to format: functional
The subject of test [1] is Leishmania donovani. The test is described as follows: Antileishmanial activity against Leishmania donovani LCR-L133 promastigotes at 10 […] after 48 hrs relative to control.
The subject of test [2] is Leishmania donovani. The test can be described thus: Antileishmanial activity against Leishmania donovani LCR-L133 amastigotes at 1 ug/ml after 72 hrs relative to control.
The test system of test [3] is Leishmania donovani. The test is described as follows: Antileishmanial activity against Leishmania donovani LCR-L133 promastigotes at 100 […] after 48 hrs relative to control.
Test [4] relates to Leishmania donovani. The test can be described thus: Antileishmanial activity against Leishmania donovani LCR-L133 promastigotes at 1 […] after 24 hrs relative to control.
In test [5] the test system is Leishmania donovani. The test is described as follows: Antileishmanial activity against Leishmania donovani LCR-L133 amastigotes at 1 ug/ml after 48 hrs relative to control.
Test [6] deals with Leishmania donovani. The test is described as follows: Antileishmanial activity against Leishmania donovani LCR-L133 promastigotes at 10 […] after 72 hrs relative to control.
Test [7] relates to Leishmania donovani. The test is described as follows: Antileishmanial activity against Leishmania donovani LCR-L133 amastigotes at 10 ug/ml after 72 hrs relative to control.
The test system of test [8] is Leishmania donovani. The test is described as follows: Antileishmanial activity against Leishmania donovani LCR-L133 amastigotes at 10 ug/ml after 48 hrs relative to control.
For test [9], the system named is Leishmania donovani. The test can be described thus: Antileishmanial activity against Leishmania donovani LCR-L133 promastigotes at 100 […] after 72 hrs relative to control.
Test [10] relates to Leishmania donovani. The test can be described thus: Antileishmanial activity against Leishmania donovani LCR-L133 amastigotes at 1 ug/ml after 24 hrs relative to control.
Test [11] concerns Leishmania donovani. The test can be described thus: Antileishmanial activity against Leishmania donovani LCR-L133 amastigotes at 100 ug/ml after 72 hrs relative to control.
Test [12] concerns Leishmania donovani. The test can be described thus: Antileishmanial activity against Leishmania donovani LCR-L133 promastigotes at 100 […] after 24 hrs relative to control.
The subject of test [13] is Leishmania donovani. The test can be described thus: Antileishmanial activity against Leishmania donovani LCR-L133 amastigotes at 100 ug/ml after 48 hrs relative to control.
The subject of test [14] is Leishmania donovani. The test is described as follows: Antileishmanial activity against Leishmania donovani LCR-L133 promastigotes at 1 […] after 48 hrs relative to control.
Test [15] concerns Leishmania donovani. The test can be described thus: Antileishmanial activity against Leishmania donovani LCR-L133 amastigotes at 100 ug/ml after 24 hrs relative to control.
In test [16] the test system is Leishmania donovani. The test can be described thus: Antileishmanial activity against Leishmania donovani LCR-L133 promastigotes at 1 […] after 72 hrs relative to control.
Test [17] has as its system Leishmania donovani. The test can be described thus: Antileishmanial activity against Leishmania donovani LCR-L133 promastigotes at 10 […] after 24 hrs relative to control.
For test [18], the system named is Leishmania donovani. The test can be described thus: Antileishmanial activity against Leishmania donovani LCR-L133 amastigotes at 10 ug/ml after 24 hrs relative to control.

Take `C=C[C@]1(C)O[C@@]2(C)CC[C@@H]3C(C)(C)[C@@H](OC(C)=O)CC[C@@]3(C)C2=CC1=O`: the Activity stood at 0% with Leishmania donovani [1]; 12% in the test with Leishmania donovani [2]; 100% in the test on Leishmania donovani [3]; 0% in the test on Leishmania donovani [4]; 0% in the test on Leishmania donovani [5]; 0% in the test on Leishmania donovani [6]. Also, the Activity in the test on Leishmania donovani [7] stood at 34%; with Leishmania donovani [8], 21%; in the test with Leishmania donovani [9], 100%; with Leishmania donovani [10] it was 0%; in the test on Leishmania donovani [11], 50%; with Leishmania donovani [12], 100%. In addition, the Activity in the test with Leishmania donovani [13] is recorded as 45%; in the test with Leishmania donovani [14] it was 0%; with Leishmania donovani [15] it was 32%; in the test on Leishmania donovani [16], 0%; in the test on Leishmania donovani [17], 0%; in the test with Leishmania donovani [18], 12%.

With `C=C[C@]1(C)O[C@@]2(C)CC[C@@H]3C(C)(C)[C@H](O)CC[C@@]3(C)[C@@H]2C[C@@H]1O`, the Activity is recorded as 0% in the test on Leishmania donovani [1]; 0% with Leishmania donovani [2]; 31% in the test with Leishmania donovani [3]; 0% in the test on Leishmania donovani [4]; 0% in the test with Leishmania donovani [5]; 0% in the test on Leishmania donovani [6]. Moreover, the Activity is recorded as 11% with Leishmania donovani [7]; 6% in the test on Leishmania donovani [8]; 0% in the test with Leishmania donovani [9]; 0% with Leishmania donovani [10]; 35% in the test with Leishmania donovani [11]; 0% in the test with Leishmania donovani [12]. Moreover, the Activity with Leishmania donovani [13] is 31%; in the test on Leishmania donovani [14] it was 0%; in the test with Leishmania donovani [15] it was 15%; in the test with Leishmania donovani [16], 0%; with Leishmania donovani [17], 0%; in the test with Leishmania donovani [18], 0%.

As for MEGLUMINE ANTIMONATE, the Activity in the test with Leishmania donovani [1] worked out at 40%; with Leishmania donovani [3], 74%; in the test with Leishmania donovani [4] it was 4%; in the test on Leishmania donovani [6], 42%; with Leishmania donovani [9], 76%; with Leishmania donovani [12], 70%. Besides, the Activity in the test with Leishmania donovani [14] is 20%; with Leishmania donovani [16], 39%; in the test with Leishmania donovani [17], 28%.

In the case of `C=C[C@@]1(CO)CC[C@H]2[C@]3(C)CCC[C@](C)(C(=O)OC)[C@H]3CC[C@]2(C)O1`, the Activity with Leishmania donovani [1] is 0%; in the test on Leishmania donovani [2], 13%; in the test with Leishmania donovani [3], 62%; with Leishmania donovani [4], 0%; with Leishmania donovani [5] it was 12%; in the test with Leishmania donovani [6] it was 0%. Also, the Activity in the test with Leishmania donovani [7] was determined as 35%; in the test with Leishmania donovani [8] it was 26%; with Leishmania donovani [9], 79%; in the test on Leishmania donovani [10] it was 0%; in the test on Leishmania donovani [11], 67%; with Leishmania donovani [12], 0%. For the same molecule, the Activity is on record as 58% in the test with Leishmania donovani [13]; 0% in the test with Leishmania donovani [14]; 47% in the test on Leishmania donovani [15]; 0% in the test with Leishmania donovani [16]; 0% in the test on Leishmania donovani [17]; 17% in the test on Leishmania donovani [18].

Turning to `C=C[C@@]1(C)CC[C@H]2[C@]3(C)CC[C@@H](O)C(C)(C)[C@H]3CC[C@]2(C)O1`, the Activity was determined as 0% with Leishmania donovani [1]; 0% with Leishmania donovani [2]; 70% with Leishmania donovani [3]; 0% in the test on Leishmania donovani [4]; 7% with Leishmania donovani [5]; 0% in the test on Leishmania donovani [6]. In addition, the Activity in the test with Leishmania donovani [7] was 18%; in the test on Leishmania donovani [8], 13%; in the test with Leishmania donovani [9], 52%; with Leishmania donovani [10] it was 0%; in the test on Leishmania donovani [11], 39%; in the test on Leishmania donovani [12], 27%. Moreover, the Activity with Leishmania donovani [13] was 25%; in the test with Leishmania donovani [14] it was 0%; with Leishmania donovani [15], 17%; in the test on Leishmania donovani [16], 0%; with Leishmania donovani [17], 0%; in the test on Leishmania donovani [18] it was 0%.

As to `C=C[C@]1(C)O[C@@]2(C)CC[C@@H]3C(C)(C)[C@H](O)CC[C@@]3(C)[C@@H]2C[C@H]1O` [VARODIOL], the Activity in the test with Leishmania donovani [1] is 0%; with Leishmania donovani [2], 0%; in the test with Leishmania donovani [3] it was 63%; in the test with Leishmania donovani [4], 0%; with Leishmania donovani [5], 0%; in the test on Leishmania donovani [6], 0%. Besides, the Activity in the test on Leishmania donovani [7] is reported as 12%; in the test with Leishmania donovani [8] it was 7%; with Leishmania donovani [9], 0%; in the test with Leishmania donovani [10], 0%; with Leishmania donovani [11], 33%; with Leishmania donovani [12], 0%. Also, the Activity in the test on Leishmania donovani [13] is reported as 29%; in the test with Leishmania donovani [14], 0%; in the test with Leishmania donovani [15], 12%; in the test with Leishmania donovani [16], 0%; in the test with Leishmania donovani [17], 0%; in the test on Leishmania donovani [18], 0%.

As to `C=C[C@]1(CO)CC[C@H]2[C@]3(C)CCC(=O)[C@](C)(C(=O)OC)[C@H]3CC[C@]2(C)O1`, the Activity in the test with Leishmania donovani [1] is listed as 0%; in the test on Leishmania donovani [2] it was 0%; with Leishmania donovani [3] it was 22%; in the test with Leishmania donovani [4] it was 0%; in the test with Leishmania donovani [5], 0%; in the test on Leishmania donovani [6] it was 0%. Further, the Activity amounted to 0% in the test with Leishmania donovani [7]; 0% with Leishmania donovani [8]; 34% with Leishmania donovani [9]; 0% in the test with Leishmania donovani [10]; 19% in the test on Leishmania donovani [11]; 0% in the test with Leishmania donovani [12]. The Activity in the test with Leishmania donovani [13] is listed as 14%; with Leishmania donovani [14], 0%; in the test with Leishmania donovani [15], 9%; in the test with Leishmania donovani [16], 0%; with Leishmania donovani [17] it was 0%; in the test on Leishmania donovani [18], 0%.

In the case of `C=C[C@]1(C)O[C@@]2(C)C[C@H](O)[C@@H]3C(C)(C)[C@H](O)CC[C@@]3(C)[C@@H]2CC1=O`, the Activity in the test on Leishmania donovani [1], in the test on Leishmania donovani [2], in the test on Leishmania donovani [3], with Leishmania donovani [4], in the test with Leishmania donovani [5] and in the test on Leishmania donovani [6] was 0% in each case. In addition, the Activity in the test on Leishmania donovani [7] was determined as 0%; in the test with Leishmania donovani [8], 0%; in the test on Leishmania donovani [9] it was 0%; in the test with Leishmania donovani [10], 0%; in the test on Leishmania donovani [11], 19%; in the test on Leishmania donovani [12] it was 0%. Also, the Activity turned out to be 15% in the test on Leishmania donovani [13]; 0% with Leishmania donovani [14]; 14% in the test on Leishmania donovani [15]; 0% in the test on Leishmania donovani [16]; 0% in the test with Leishmania donovani [17]; 0% with Leishmania donovani [18].

`C=C[C@]1(C)O[C@@]2(C)CC[C@@H]3C(C)(C)C(=O)CC[C@@]3(C)[C@@H]2CC1=O`: the Activity in the test on Leishmania donovani [1] came out at 0%; in the test with Leishmania donovani [2] it was 0%; in the test on Leishmania donovani [3] it was 25%; in the test with Leishmania donovani [4] it was 0%; with Leishmania donovani [5] it was 0%; in the test on Leishmania donovani [6], 0%. The Activity stood at 11% in the test on Leishmania donovani [7]; 7% in the test with Leishmania donovani [8]; 0% in the test on Leishmania donovani [9]; 0% in the test with Leishmania donovani [10]; 36% in the test on Leishmania donovani [11]; 0% with Leishmania donovani [12]. The Activity in the test on Leishmania donovani [13] was found to be 31%; in the test on Leishmania donovani [14] it was 0%; with Leishmania donovani [15] it was 22%; with Leishmania donovani [16] it was 0%; with Leishmania donovani [17], 0%; with Leishmania donovani [18], 0%.

As to `C=C[C@@]1(C)CC[C@H]2[C@]3(C)CC[C@@H](O)C(C)(C)[C@H]3[C@@H](O)C[C@]2(C)O1`, the Activity is recorded as 0% with Leishmania donovani [1]; 14% in the test on Leishmania donovani [2]; 52% in the test on Leishmania donovani [3]; 0% in the test on Leishmania donovani [4]; 0% with Leishmania donovani [5]; 0% in the test with Leishmania donovani [6]. Also, the Activity with Leishmania donovani [7] was found to be 33%; in the test with Leishmania donovani [8] it was 24%; with Leishmania donovani [9], 0%; with Leishmania donovani [10] it was 0%; in the test on Leishmania donovani [11] it was 67%; with Leishmania donovani [12], 0%. Also, the Activity with Leishmania donovani [13] came to 51%; in the test on Leishmania donovani [14], 0%; with Leishmania donovani [15], 34%; in the test with Leishmania donovani [16], 0%; in the test on Leishmania donovani [17], 0%; in the test on Leishmania donovani [18], 10%.

Values taken from ChEMBL document CHEMBL1145677, “In Vitro Action of ent -Manoyl Oxides against Leishmania donovani” (1997).
